Source: paper PMC8878140, “Inhibitory Effects of Nitrogenous Metabolites from a Marine-Derived Streptomyces bacillaris on Isocitrate Lyase of Candida albicans” (Marine Drugs, 2022)

Legend:
isocitrate lyase (ICL) [1] = biological target: T1, isocitrate lyase (ICL) (Candida albicans, UniProt Q9P8Q7); test: biochemical
T1 construct: gene ICL1; purified recombinant ICL

isocitrate lyase (ICL) [2] = biological target: T1, isocitrate lyase (ICL); test: enzyme assay, absorbance at […] nm (phenylhydrazine); Lineweaver-Burk and Dixon plots; assay type: biochemical

T1 sequence (Q9P8Q7 whole entry): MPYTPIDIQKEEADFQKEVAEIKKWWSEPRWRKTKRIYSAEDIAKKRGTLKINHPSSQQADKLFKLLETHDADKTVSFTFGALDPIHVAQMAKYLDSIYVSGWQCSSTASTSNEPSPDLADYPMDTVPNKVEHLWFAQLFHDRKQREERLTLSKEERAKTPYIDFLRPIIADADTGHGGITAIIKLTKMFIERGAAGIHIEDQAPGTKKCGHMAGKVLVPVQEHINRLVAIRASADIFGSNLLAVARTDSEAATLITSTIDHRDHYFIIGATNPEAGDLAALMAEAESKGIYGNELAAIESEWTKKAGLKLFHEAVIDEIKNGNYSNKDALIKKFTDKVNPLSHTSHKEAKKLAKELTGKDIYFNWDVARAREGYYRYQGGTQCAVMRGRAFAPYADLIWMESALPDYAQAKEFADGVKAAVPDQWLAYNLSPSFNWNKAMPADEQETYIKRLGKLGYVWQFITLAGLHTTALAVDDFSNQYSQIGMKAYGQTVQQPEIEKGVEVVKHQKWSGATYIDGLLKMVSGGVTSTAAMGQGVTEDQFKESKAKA

O=C(O)CC[N+](=O)[O-] [3-nitropropionate, reference compound]
IC50 (isocitrate lyase (ICL) [1]): 21.5 µM

CS[C@]12CC[C@H](O)[C@H]1C(=O)NC2=O [compound 1, bacillimide]
IC50 (isocitrate lyase (ICL) [2]): 44.2 µM

C[S+]([O-])CCNC(=O)c1ccc[nH]1 (stereo not drawn) [compound 2, N-(2-(methylsulfinyl)ethyl)-1H-pyrrole-2-carboxamide]
IC50 (isocitrate lyase (ICL) [1]; read-out: ICL IC50): 190 µM
